Experimental data taken from article PMC5218480 (PLoS ONE, 2017).

System: MV-4-11 cells
Assay: Gene expression microarray analysis (Affymetrix PrimeView) and GSEA
Type: cell-based, human
Set-up: RFU PODN (11730768_x_at) / Fold change /veh PODN (11730768_x_at) / RFU LINC00158 (11744669_a_at) / Fold change /veh LINC00158 (11744669_a_at) / RFU DUSP10 (11751237_a_at) / Fold change /veh DUSP10 (11751237_a_at) / RFU ID3 (11757404_x_at) / Fold change /veh ID3 (11757404_x_at) / RFU PLEKHG5 (11737974_s_at) / Fold change /veh PLEKHG5 (11737974_s_at) / RFU LRRC4B (11730491_at) / Fold change /veh LRRC4B (11730491_at) / RFU GIMAP4 (11747438_a_at) / Fold change /veh GIMAP4 (11747438_a_at) / RFU KRT8 (11758183_x_at) / Fold change /veh KRT8 (11758183_x_at) / RFU CNN1 (11734310_a_at) / Fold change /veh CNN1 (11734310_a_at) / RFU VPS37D (11726825_at) / Fold change /veh VPS37D (11726825_at) / RFU C10orf10 (11716522_x_at) / Fold change /veh C10orf10 (11716522_x_at) / RFU KIR2DL2 /// KIR2DL4 /// KIR2DL5A /// KIR2DL5B /// KIR2DS1 /// KIR2DS2 /// KIR2DS3 /// KIR2DS4 /// KIR3DL3 /// KIR3DL3 /// KIR3DS1 (11738374_at) / Fold change /veh KIR2DL2 /// KIR2DL4 /// KIR2DL5A /// KIR2DL5B /// KIR2DS1 /// KIR2DS2 /// KIR2DS3 /// KIR2DS4 /// KIR3DL3 /// KIR3DL3 /// KIR3DS1 (11738374_at) / RFU C1QL1 (11718748_at) / Fold change /veh C1QL1 (11718748_at) / RFU TMPRSS4 (11747572_a_at) / Fold change /veh TMPRSS4 (11747572_a_at) / RFU HAMP (11756126_x_at) / Fold change /veh HAMP (11756126_x_at) / RFU RNFT2 (11725882_a_at) / Fold change /veh RNFT2 (11725882_a_at) / RFU NR4A2 (11747474_a_at) / Fold change /veh NR4A2 (11747474_a_at) / RFU ABCC12 (11746883_a_at) / Fold change /veh ABCC12 (11746883_a_at) / RFU TMEM136 (11760407_x_at) / Fold change /veh TMEM136 (11760407_x_at) / RFU CLDN22 /// WWC2 (11732394_at) / Fold change /veh CLDN22 /// WWC2 (11732394_at) / RFU HLA-DPB1 (11760878_x_at) / Fold change /veh HLA-DPB1 (11760878_x_at) / RFU SPINT1 (11716480_a_at) / Fold change /veh SPINT1 (11716480_a_at) / RFU GAP43 (11754022_s_at) / Fold change /veh GAP43 (11754022_s_at) / RFU A4GNT (11735810_at) / Fold change /veh A4GNT (11735810_at) / RFU PRB3 (11715151_x_at) / Fold change /veh PRB3 (11715151_x_at) / RFU TUBB4B (11761932_at) / Fold change /veh TUBB4B (11761932_at) / RFU CAPN14 (11732068_a_at) / Fold change /veh CAPN14 (11732068_a_at) / RFU TMCC2 (11721928_a_at) / Fold change /veh TMCC2 (11721928_a_at) / RFU IRGQ (11745062_a_at) / Fold change /veh IRGQ (11745062_a_at) / RFU FAM174B (11720279_a_at) / Fold change /veh FAM174B (11720279_a_at) / RFU TMPRSS4 (11748680_a_at) / Fold change /veh TMPRSS4 (11748680_a_at) / RFU FAM212B (11763350_a_at) / Fold change /veh FAM212B (11763350_a_at) / RFU PLEKHG5 (11743358_a_at) / Fold change /veh PLEKHG5 (11743358_a_at) / RFU ZSCAN30 (11745921_a_at) / Fold change /veh ZSCAN30 (11745921_a_at) / RFU CMKLR1 (11741424_a_at) / Fold change /veh CMKLR1 (11741424_a_at) / RFU LOC101060620 /// MAPK8IP1 (11723275_at) / Fold change /veh LOC101060620 /// MAPK8IP1 (11723275_at) / RFU SPTSSB (11747773_x_at) / Fold change /veh SPTSSB (11747773_x_at) / RFU PRSS12 (11739890_at) / Fold change /veh PRSS12 (11739890_at) / RFU BIN1 (11741810_x_at) / Fold change /veh BIN1 (11741810_x_at) / RFU WNT11 (11732464_a_at) / Fold change /veh WNT11 (11732464_a_at) / RFU C10orf10 (11716521_a_at) / Fold change /veh C10orf10 (11716521_a_at) / RFU C5orf56 (11738089_at) / Fold change /veh C5orf56 (11738089_at) / RFU CYB561 (11721691_x_at) / Fold change /veh CYB561 (11721691_x_at) / RFU ANKRD19P (11752326_a_at) / Fold change /veh ANKRD19P (11752326_a_at) / RFU OR2T12 /// OR2T33 /// OR2T8 (11738714_s_at) / Fold change /veh OR2T12 /// OR2T33 /// OR2T8 (11738714_s_at) / RFU VCAN (11748164_a_at) / Fold change /veh VCAN (11748164_a_at) / RFU JSRP1 (11732532_at) / Fold change /veh JSRP1 (11732532_at) / RFU KRTAP10-11 (11738290_x_at) / Fold change /veh KRTAP10-11 (11738290_x_at) / RFU MYO3A (11730013_a_at) / Fold change /veh MYO3A (11730013_a_at) / RFU EBF3 (11725865_a_at) / Fold change /veh EBF3 (11725865_a_at) / RFU CAMK2N1 (11719241_x_at) / Fold change /veh CAMK2N1 (11719241_x_at) / RFU C5orf56 (11738088_a_at) / Fold change /veh C5orf56 (11738088_a_at) / RFU OLFML3 (11715873_a_at) / Fold change /veh OLFML3 (11715873_a_at) / RFU LOC100653217 /// NTM (11731650_a_at) / Fold change /veh LOC100653217 /// NTM (11731650_a_at) / RFU MAPK11 (11762145_a_at) / Fold change /veh MAPK11 (11762145_a_at) / RFU FIZ1 (11724087_x_at) / Fold change /veh FIZ1 (11724087_x_at) / RFU OASL (11726364_x_at) / Fold change /veh OASL (11726364_x_at) / RFU SOX15 (11748057_x_at) / Fold change /veh SOX15 (11748057_x_at) / RFU CD79A (11719716_a_at) / Fold change /veh CD79A (11719716_a_at) / RFU HIST1H1D (11736915_at) / Fold change /veh HIST1H1D (11736915_at) / RFU CASKIN2 (11723855_a_at) / Fold change /veh CASKIN2 (11723855_a_at) / RFU LOC730098 (11760151_x_at) / Fold change /veh LOC730098 (11760151_x_at) / RFU OR4N2 (11742367_at) / Fold change /veh OR4N2 (11742367_at) / RFU PRRT2 (11749266_a_at) / Fold change /veh PRRT2 (11749266_a_at) / RFU SNX32 (11753110_a_at) / Fold change /veh SNX32 (11753110_a_at) / RFU CDHR5 (11726645_a_at) / Fold change /veh CDHR5 (11726645_a_at) / RFU RCAN1 (11760418_a_at) / Fold change /veh RCAN1 (11760418_a_at) / RFU FAM167A (11723789_a_at) / Fold change /veh FAM167A (11723789_a_at) / RFU FAM26E (11764081_at) / Fold change /veh FAM26E (11764081_at) / RFU ISYNA1 (11749810_s_at) / Fold change /veh ISYNA1 (11749810_s_at) / RFU ACY1 (11761880_at) / Fold change /veh ACY1 (11761880_at) / RFU 11764098_at / Fold change /veh 11764098_at / RFU SAMD14 (11745864_x_at) / Fold change /veh SAMD14 (11745864_x_at) / RFU NPB (11741838_a_at) / Fold change /veh NPB (11741838_a_at) / RFU TMPRSS6 (11731388_a_at) / Fold change /veh TMPRSS6 (11731388_a_at) / RFU KRTAP10-2 (11738614_at) / Fold change /veh KRTAP10-2 (11738614_at) / RFU ARHGAP8 /// PRR5-ARHGAP8 (11727945_x_at) / Fold change /veh ARHGAP8 /// PRR5-ARHGAP8 (11727945_x_at) / RFU KRTAP5-7 /// NADSYN1 (11734609_at) / Fold change /veh KRTAP5-7 /// NADSYN1 (11734609_at) / RFU RASL12 (11751679_a_at) / Fold change /veh RASL12 (11751679_a_at) / RFU CDKN2B (11736163_a_at) / Fold change /veh CDKN2B (11736163_a_at) / RFU PRF1 (11729649_at) / Fold change /veh PRF1 (11729649_at) / RFU, ZNF638 /// ZNF638-IT1 / Fold change vs veh, ZNF638 /// ZNF638-IT1 / RFU, PANK3 / Fold change vs veh, PANK3 / RFU, SH3YL1 / Fold change vs veh, SH3YL1 / RFU, ZEB2 / Fold change vs veh, ZEB2 / RFU, NRIP1 / Fold change vs veh, NRIP1 / RFU, PTTG1IP / Fold change vs veh, PTTG1IP / RFU, CAPN2 / Fold change vs veh, CAPN2 / RFU, MED14 / Fold change vs veh, MED14 / RFU, SNORA58 / Fold change vs veh, SNORA58 / RFU, C1orf63 / Fold change vs veh, C1orf63 / RFU, LRRFIP1 / Fold change vs veh, LRRFIP1 / RFU, NDUFAF7 / Fold change vs veh, NDUFAF7 / RFU, SLC12A2 / Fold change vs veh, SLC12A2 / RFU, IBTK / Fold change vs veh, IBTK / RFU, ESF1 / Fold change vs veh, ESF1 / Fold change vs veh, TMEM50B / RFU, TAOK1 / Fold change vs veh, TAOK1 / RFU, ACBD3 / Fold change vs veh, ACBD3 / RFU, TMA16 / Fold change vs veh, TMA16 / RFU, RWDD3 / Fold change vs veh, RWDD3 / RFU, BCAT1 / Fold change vs veh, BCAT1 / RFU, EDEM3 / Fold change vs veh, EDEM3 / RFU, TMEM33 / Fold change vs veh, TMEM33 / RFU, WDR75 / Fold change vs veh, WDR75 / RFU, AHCTF1 / Fold change vs veh, AHCTF1 / RFU, TFRC / Fold change vs veh, TFRC / RFU, ZDHHC17 / Fold change vs veh, ZDHHC17 / RFU, NOM1 / Fold change vs veh, NOM1 / RFU, ARL8B / Fold change vs veh, ARL8B / RFU, ZBTB11 / Fold change vs veh, ZBTB11 / RFU, TAMM41 / Fold change vs veh, TAMM41 / RFU, KIAA1704 /// LOC100996395 / Fold change vs veh, KIAA1704 /// LOC100996395 / RFU, ING1 / Fold change vs veh, ING1 / RFU, TRMT61B / Fold change vs veh, TRMT61B / RFU, FUBP3 / Fold change vs veh, FUBP3 / RFU, TP53 / Fold change vs veh, TP53 / RFU, TNKS2 / Fold change vs veh, TNKS2 / RFU, ZFP14 / Fold change vs veh, ZFP14 / RFU, ACTR2 / Fold change vs veh, ACTR2 / RFU, PPP3R1 / Fold change vs veh, PPP3R1 / RFU, PIK3R1 / Fold change vs veh, PIK3R1 / RFU, HNRNPA1 / Fold change vs veh, HNRNPA1 / RFU, RNF170 / Fold change vs veh, RNF170 / RFU, ZNF28 / Fold change vs veh, ZNF28 / RFU, RNGTT / Fold change vs veh, RNGTT / RFU, OGT / Fold change vs veh, OGT / RFU, BRD1 / Fold change vs veh, BRD1 / RFU, MARS / Fold change vs veh, MARS / RFU, ZNF655 / Fold change vs veh, ZNF655 / RFU, FAHD1 / Fold change vs veh, FAHD1 / RFU, BDP1 / Fold change vs veh, BDP1 / RFU, LRRCC1 / Fold change vs veh, LRRCC1 / RFU, ARID1A / Fold change vs veh, ARID1A / RFU, ZNF146 / Fold change vs veh, ZNF146 / RFU, ZNF330 / Fold change vs veh, ZNF330 / RFU, GPN3 / Fold change vs veh, GPN3 / RFU, C9orf123 / Fold change vs veh, C9orf123 / RFU, N4BP2L2 / Fold change vs veh, N4BP2L2 / RFU, ARFIP1 / Fold change vs veh, ARFIP1 / RFU, FAM179B / Fold change vs veh, FAM179B / RFU, BCL10 / Fold change vs veh, BCL10 / RFU, UHRF1BP1L / Fold change vs veh, UHRF1BP1L / RFU, BET1 / Fold change vs veh, BET1 / RFU, CNOT2 / Fold change vs veh, CNOT2 / RFU, ZNF268 / Fold change vs veh, ZNF268 / Fold change vs veh, ZNF507 / RFU, DGCR2 / Fold change vs veh, DGCR2 / RFU, WDSUB1 / Fold change vs veh, WDSUB1 / Fold change vs veh, HSP90B1 /// MIR3652 / RFU, ADSS / Fold change vs veh, ADSS / RFU, GK / Fold change vs veh, GK / RFU, ZNF148 / Fold change vs veh, ZNF148 / RFU, TAF9 / Fold change vs veh, TAF9 / RFU, SLC1A5 / Fold change vs veh, SLC1A5 / RFU, SLMO2 / Fold change vs veh, SLMO2 / RFU, ABCC4 / Fold change vs veh, ABCC4 / RFU, LOC101060439 /// RAP1B / Fold change vs veh, LOC101060439 /// RAP1B / RFU, RFX7 / Fold change vs veh, RFX7 / RFU, GTPBP10 / Fold change vs veh, GTPBP10 / RFU, CNEP1R1 / Fold change vs veh, CNEP1R1 / RFU, BIVM-ERCC5 /// ERCC5 / Fold change vs veh, BIVM-ERCC5 /// ERCC5 / RFU, ILF3 / Fold change vs veh, ILF3 / RFU 11762660_at / Fold change /veh 11762660_at / RFU VCAN (11757783_s_at) / Fold change /veh VCAN (11757783_s_at) / RFU DDX43 (11728927_at) / Fold change /veh DDX43 (11728927_at) / RFU KRT8 (11758188_x_at) / Fold change /veh KRT8 (11758188_x_at) / RFU NKD1 (11759106_at) / Fold change /veh NKD1 (11759106_at) / RFU SRD5A1 (11742802_a_at) / Fold change /veh SRD5A1 (11742802_a_at) / RFU TPSAB1 /// TPSB2 (11721975_s_at) / Fold change /veh TPSAB1 /// TPSB2 (11721975_s_at) / RFU GSTM3 (11746129_a_at) / Fold change /veh GSTM3 (11746129_a_at) / RFU IL23R (11737362_x_at) / Fold change /veh IL23R (11737362_x_at) / RFU TMEM51 (11727254_a_at) / Fold change /veh TMEM51 (11727254_a_at) / RFU PIWIL2 (11732686_x_at) / Fold change /veh PIWIL2 (11732686_x_at) / RFU ORM1 (11744905_x_at) / Fold change /veh ORM1 (11744905_x_at) / RFU CCDC152 (11743942_at) / Fold change /veh CCDC152 (11743942_at) / RFU ECM1 (11717891_a_at) / Fold change /veh ECM1 (11717891_a_at) / RFU IL23R (11748794_a_at) / Fold change /veh IL23R (11748794_a_at) / RFU TNFAIP8L3 (11732012_x_at) / Fold change /veh TNFAIP8L3 (11732012_x_at) / RFU MBOAT4 (11741988_at) / Fold change /veh MBOAT4 (11741988_at) / RFU 11764193_at / Fold change /veh 11764193_at / RFU TMEM53 (11763286_at) / Fold change /veh TMEM53 (11763286_at) / RFU MAGEB2 (11727129_at) / Fold change /veh MAGEB2 (11727129_at) / RFU TMEM200A (11744735_a_at) / Fold change /veh TMEM200A (11744735_a_at) / RFU CCDC152 (11751479_a_at) / Fold change /veh CCDC152 (11751479_a_at) / RFU FAM211A (11726209_a_at) / Fold change /veh FAM211A (11726209_a_at) / RFU RGS16 (11746705_a_at) / Fold change /veh RGS16 (11746705_a_at) / RFU VCAN (11755009_s_at) / Fold change /veh VCAN (11755009_s_at) / RFU RHOB (11743442_s_at) / Fold change /veh RHOB (11743442_s_at) / RFU RGS16 (11720943_a_at) / Fold change /veh RGS16 (11720943_a_at) / RFU RGS16 (11720944_at) / Fold change /veh RGS16 (11720944_at) / RFU, VPS4B / Fold change vs veh, VPS4B / RFU, CREB1 / Fold change vs veh, CREB1 / RFU, DNAJC13 / Fold change vs veh, DNAJC13 / RFU, GNAQ / Fold change vs veh, GNAQ / RFU, CDK5R1 / Fold change vs veh, CDK5R1 / RFU, ZRANB3 / Fold change vs veh, ZRANB3 / RFU, CUL4A / Fold change vs veh, CUL4A / RFU, CCNY / Fold change vs veh, CCNY / RFU, UFL1 / Fold change vs veh, UFL1 / RFU, COG3 / Fold change vs veh, COG3 / RFU, DIAPH2 / Fold change vs veh, DIAPH2 / RFU, SKA2 / Fold change vs veh, SKA2 / RFU, AFF3 / Fold change vs veh, AFF3 / RFU, LMF1 / Fold change vs veh, LMF1 / RFU, IPO11 / Fold change vs veh, IPO11 / RFU, DFFB / Fold change vs veh, DFFB / RFU, FOXP1 / Fold change vs veh, FOXP1 / RFU, CARD8 / Fold change vs veh, CARD8 / RFU, STRN3 / Fold change vs veh, STRN3 / RFU, ADK / Fold change vs veh, ADK / RFU, RASSF2 / Fold change vs veh, RASSF2 / RFU, WIPF1 / Fold change vs veh, WIPF1 / RFU, LARP1B / Fold change vs veh, LARP1B / RFU, RASA1 / Fold change vs veh, RASA1 / RFU, RB1 / Fold change vs veh, RB1 / RFU, PPFIA1 / Fold change vs veh, PPFIA1 / RFU, MAT2A / Fold change vs veh, MAT2A / RFU, CCT5 / Fold change vs veh, CCT5 / RFU, WDR92 / Fold change vs veh, WDR92 / RFU, CUX1 / Fold change vs veh, CUX1 / RFU, TTC7A / Fold change vs veh, TTC7A / RFU, TMEM135 / Fold change vs veh, TMEM135 / RFU, DEPTOR / Fold change vs veh, DEPTOR / RFU, CPM / Fold change vs veh, CPM / RFU, DNAJB6 / Fold change vs veh, DNAJB6 / RFU, CACNA2D3 / Fold change vs veh, CACNA2D3 / RFU, DTX4 / Fold change vs veh, DTX4 / RFU, TFCP2 / Fold change vs veh, TFCP2 / RFU, GMCL1 /// GMCL1P1 / Fold change vs veh, GMCL1 /// GMCL1P1 / RFU, AEBP2 / Fold change vs veh, AEBP2 / RFU, SNHG1 /// SNORD22 /// SNORD25 /// SNORD26 /// SNORD27 /// SNORD28 /// SNORD29 /// SNORD31 / Fold change vs veh, SNHG1 /// SNORD22 /// SNORD25 /// SNORD26 /// SNORD27 /// SNORD28 /// SNORD29 /// SNORD31 / Fold change (Aza/veh), C12orf56 (ProbeSet 11735607_a_at) / Fold change (ACY-1035/veh), C12orf56 (ProbeSet 11735607_a_at) / Fold change (Aza/veh), FGFR1OP (ProbeSet 11751329_s_at) / Fold change (ACY-1035/veh), FGFR1OP (ProbeSet 11751329_s_at) / Fold change (Aza/veh), VPS36 (ProbeSet 11739960_a_at) / Fold change (ACY-1035/veh), VPS36 (ProbeSet 11739960_a_at) / RFU SYPL1 (11715823_x_at) / Fold change /veh SYPL1 (11715823_x_at) / RFU IGFBP7 (11715501_s_at) / Fold change /veh IGFBP7 (11715501_s_at) / RFU REEP3 (11722064_at) / Fold change /veh REEP3 (11722064_at) / RFU IGLL1 (11728026_x_at) / Fold change /veh IGLL1 (11728026_x_at): dose or concentration left out as unconfirmed
Conditions: MV-4-11 cells, 48 hours

Nc1ncn([C@@H]2O[C@H](CO)[C@@H](O)[C@H]2O)c(=O)n1 [azacitidine]
Fold change /veh CYB561 (11721691_x_at): 1.09
